Test results published in paper PMC3225327 (Journal of Biomedical Science, 2011).

What was measured:
[1] = test system: PDE4H; settings: cited from earlier work
[2] = test system: PDE4L; settings: cited from earlier work
[3] = test system: PDE4 subtypes (A~D); design: method as in PMID 16458289; settings: cited from earlier work
[4] = cited from earlier work
[5] = test system: PDE3; test: Inhibition of PDE3 activity, two-step procedure; assay type: biochemical; settings: homogenate of guinea pig lungs or hearts
Method: (§1) Activities of PDE1~5 in the homogenate of guinea pig lungs or hearts were measured by a two-step procedure according to the previous method, using cAMP with [^3H]-cAMP or cGMP with [^3H]-cGMP as substrates. […] The reagents and homogenate were mixed on ice, and the reaction was initiated by transferring the mixture to a water bath at 37°C. Following a 30-min incubation, the reaction was stopped by transferring the reaction vessel to a bath of boiling water for 3 min. After cooling on ice, 20 μl of a 1 mg/ml solution of Crotalus atrox snake venom was added to the reaction mixture, and the mixture was incubated at 37°C for 10 min. Unreacted [^3H]-cAMP or [^3H]-cGMP was removed by the addition of 500 μl of a 1-in-1 Tris-HCl (40 mM) buffer suspension of Dowex resin (1 × 8-200) with incubation on ice for 30 min. Each tube was then centrifuged at 3700 g for 2 min, and 150 μl of the supernatant was removed for liquid scintillation counting. […] The total protein in each fraction used was assayed according to a previous method. PDE activities are reported as nmol/mg/min.

[6] = test system: PDE1; test: Inhibition of PDE1 activity, two-step procedure; assay type: biochemical; settings: homogenate of guinea pig lungs or hearts
Method: as §1

[7] = test system: PDE4; design: method as in PMID 15476679; settings: cited from earlier work
[8] = test system: emesis; design: method as in PMID 11114405; settings: ferrets; cited from earlier work
[9] = test system: duration of xylazine/ketamine-induced anesthesia; test: Xylazine/ketamine-induced anesthesia; settings: 0.25 h before anesthesia
Method: After loss of the righting reflex (i.e., when a mouse remained on its back and no longer spontaneously righted itself to a prone position), the duration of anesthesia was measured until its return as the endpoint.

[10] = test system: xylazine/ketamine-induced anesthesia; design: method as in PMID 11786486; settings: rats; cited from earlier work
[11] = test system: PDE4; test: Inhibition of PDE4 activity, two-step procedure and Lineweaver-Burk analysis; assay type: biochemical, guinea pig
Method: as §1

[12] = test system: high-affinity rolipram-binding sites (HARBSs) of guinea pig brain cell membranes; test: Displacement of 2 nM [3H]-rolipram from high-affinity rolipram-binding sites (PDE4H); settings: 2 nM [3H]-rolipram, 30°C, 1 h; read-out: EC50 (PDE4H) for displacing [3H]-rolipram binding
Method: When the above-mentioned guinea pigs were sacrificed, the whole brains were removed and homogenized with a glass/Teflon homogenizer (Glas-Col, Terre Haute, IN, USA) in 10 volumes of cold medium (pH 6.5) containing 20 mM Bis-Tris, 2 mM benzamidine, 2 mM EDTA, 50 mM sodium chloride, 0.1 mM PMSF, and 1 mM dithiothreitol. At 4°C, the homogenate was centrifuged at 170 g for 5 min to remove connective tissues and blood vessels. The suspended homogenate was then re-centrifuged at 40,000 g for 30 min to separate the cytosolic and particulate portions. The particulate portion was re-suspended in a suspension at a concentration of 400 mg/ml (wet weight/volume), after washing three times with homogenizing buffer. The particulate portion mainly consisted of cell membranes. […] Briefly, the reaction buffer consisted of 50 mM Tris-HCl and 5 mM MgCl2 (pH 7.5). […] After 1 h, the reaction was terminated by moving the reaction vessel into crushed ice. Then the reaction mixture was transferred onto Whatman GF/B glass-fiber filters, which were soaked in a 0.3% polyethyleneimine solution in a mini-funnel.

[13] = test system: ovalbumin-induced airway inflammation; design: method as in PMID 21287361; settings: compared with the ovalbumin-induced group; H&E and alcian blue-PAS staining; cited from earlier work

Compound: O=C(Nc1c(Cl)cncc1Cl)c1ccc(OC(F)F)c(OCC2CC2)c1 [roflumilast]
- PDE4H value [1]: 2.4 nM
- PDE4H/PDE4L ratio [1]: 3
- PDE4L value [2]: 0.8 nM
- selectivity among PDE4 subtypes [3]: non-selective for these four PDE4 subtypes
- mean pre- and post-bronchodilator FEV1 ([4]; patients with moderate-to-severe COPD, compared to placebo): significantly improve
- nausea, diarrhea, weight loss, and headaches ([4]; patients with moderate-to-severe COPD): more frequent

Compound: COc1cccc(Nc2c(C(N)=O)cnc3c(C)cc(S(=O)(=O)c4cccc(C(=O)N(C)C)c4)cc23)c1 [GSK256066]
- efficacy in trials in asthma ([4]; inhaled): demonstrated efficacy

Compound: Cc1[nH]c(=O)c(C#N)cc1-c1ccncc1 [milrinone, reference compound]
- IC50 [5]: 2.5 ± 1.6 µM

Compound: CCOC(=O)C1=C[C@]2(CC)CCCN3CCc4c(n1c1ccccc41)[C@@H]32 [vinpocetin, Vinpocetine, reference compound]
- IC50 [6]: 42.3 ± 5.8 µM

Compound: O=C(Nc1c(Cl)cncc1Cl)C(=O)c1cn(Cc2ccc(F)cc2)c2ccc(O)cc12 [AWD 12-281, N-(3,5-dichloro-pyrid-4-yl)-[1-(4-fluorobenzyl)-5-hydroxy-indole-3-yl]-glyoxylic acid amide]
- PDE4H value [1]: 104 nM
- PDE4H/PDE4L ratio [1]: approximately 11
- PDE4L value [2]: 9.7 nM
- efficacy in clinical trials for asthma and COPD [4]: lack of efficacy

Compound: CCOc1cc([C@@H](CS(C)(=O)=O)N2C(=O)c3cccc(NC(C)=O)c3C2=O)ccc1OC [apremilast]
- efficacy in severe plaque-type psoriasis ([4]; oral): effective

Compound: COc1ccc(C2CC(=O)c3c(O)cc(O)cc3O2)cc1O (centres unmarked) [hesperetin, 5,7,3'-trihydroxy-4'-methoxyflavanone]
- selectivity of PDE inhibition [7]: selectively inhibit PDE4 activity

Compound: Clc1cccc(Cl)c1N=C1NCCN1 [clonidine]
- effect on emesis induced by PDE4 inhibitors [8]: prevented emesis

Compound: COc1ccc(C2CNC(=O)C2)cc1OC1CCCC1 (centres unmarked) [Rolipram, rolipram]
- effect on duration of xylazine/ketamine-induced anesthesia ([9]; 0.01~1 μmol/kg s.c.): dose-dependently shortened
- effect on duration of xylazine/ketamine-induced anesthesia ([9]; 0.01~1 μmol/kg s.c., listed as rolipram): reversed the anesthesia
- effect on duration of xylazine/ketamine-induced anesthesia ([9]; 0.1 and 1 μmol/kg s.c.): significantly shortened
- PDE4H/PDE4L ratio [1]: 0.01~0.001

Compound: CN1CC[C@]2(CCN3CCc4c(oc5ccccc45)[C@@H]3C2)N(C)C1=O.Cl [MK-912]
- effect on xylazine/ketamine-induced anesthesia [10]: reverse xylazine/ketamine-induced anesthesia
- vomiting [8]: trigger vomiting

Compound: CCCCOc1cc(CC2CNC(=O)N2)ccc1OC (centres unmarked) [Ro 20-1724, 4-(3-butoxy-4-methoxybenzyl)-2-imidazolidinone, reference compound]
- mode of PDE4 inhibition ([11]; Lineweaver-Burk analysis, inhibitor 1~10 μM): competitively inhibited
- Ki ([11]; Lineweaver-Burk analysis, inhibitor 1~10 μM, substrate cAMP, read-out: dissociation constant for inhibitory binding (Ki), PDE4): 8.1 ± 2.4 µM
- IC50 ([11]; homogenate of guinea pig lungs or hearts): 4.3 ± 2.1 µM
- EC50 [12]: 0.087 ± 0.029 µM

Compound: COc1ccc([C@@H]2CC(=O)c3c(O)cc(O[C@@H]4O[C@H](CO[C@@H]5O[C@@H](C)[C@H](O)[C@@H](O)[C@H]5O)[C@@H](O)[C@H](O)[C@H]4O)cc3O2)cc1O [hesperidin]
- effect on inflammatory cell infiltration and mucus hypersecretion in lung [13]: inhibit inflammatory cell infiltration and mucus hypersecretion

Compound: COc1ccc([C@]2(C#N)CC[C@@H](C(=O)O)CC2)cc1OC1CCCC1 [cilomilast]
- PDE4H value [1]: 117.8 nM
- PDE4H/PDE4L ratio [1]: 1
- PDE4L value [2]: 120 nM
- selectivity among PDE4 subtypes [3]: higher potency for PDE4D compared to PDE4A and PDE4B
- tolerability: diarrhea and nausea ([4]; COPD phase III study, 15 mg twice daily over 6 months): higher frequencies of diarrhea and nausea than a placebo
